# Results taken from patent US20260176290A1, “INHIBITORS OF KRAS(G12D)” (Ranok Therapeutics (Hangzhou) Co. Ltd., priority 2022, published 2026).
# How the values were obtained:
# [1] = tested on: ASPC1 pancreatic adenocarcinoma cells [homozygous G12D]; assay: Cancer cell line proliferation (CellTiter-Glo), ASPC1; assay type: cell-based; settings: Homo sapiens, ASPC-1 cells, 72 hr, read-out: CTG(IC50), ABS-72 H(nM) ASPC-1
# Method: (§1) The following cancer cell lines were employed: AGS gastric carcinoma [heterozygous G12D] (ATCC, CRL-1739); A-427 lung carcinoma [heterozygous G12D] (ATCC, HTB-53); ASPC1 pancreatic adenocarcinoma [homozygous G12D] (ATCC, CRL-1682) and SW1990 pancreatic adenocarcinoma [homozygous G12D] (ATCC CRL-2172). Cell lines were cultured essentially according to ATCC recommendations.
# (§2) AGS, A-427, ASPC1, SW1990, and GP2D cells were plated in 96-well tissue culture plates at 4,000 cells/well and incubated at 37° C./5% CO2 for 72 hr in 100 μl of media. 3-fold serial dilutions of each test compound were prepared ranging from 20 μM to 1.02 nM. Each cell line was then treated with test compounds at various concentrations with a final concentration of 0.5% DMSO/well, and then incubated at 37° C./5% CO2 for 72 hr. 100 μl of CellTiter-Glo® Reagent (Promega Corporation, Madison, WI) was added to each well and processed according manufacturer's protocol. Results were analyzed and IC50 5 values were calculated in GraphPad 7 software.
# KRAS (G12D)/SOS1 = molecular target: T1, KRAS (G12D)/SOS1 (Homo sapiens, UniProt P01116, G12D); assay: KRAS (G12D)/SOS1 homogeneous time-resolved fluorescence (HTRF) assay; assay type: binding; settings: absence of GTP, 4° C. for 3 hr
# T1 construct: purchased Cisbio 63ADK000CB17PEH
# T1 sequence (P01116 1-188 isoform P01116-2 G12D): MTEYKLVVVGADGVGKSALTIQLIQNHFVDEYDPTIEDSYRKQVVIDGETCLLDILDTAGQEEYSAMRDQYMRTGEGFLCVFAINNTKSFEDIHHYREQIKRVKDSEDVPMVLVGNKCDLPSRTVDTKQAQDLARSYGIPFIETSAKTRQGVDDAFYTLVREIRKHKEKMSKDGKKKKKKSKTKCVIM
# Method: 3-fold serial dilutions of each test compound were prepared ranging from 20 μM to 1.02 nM. The test compound was mixed and incubated with reaction components, incubated in a sealed plate at 4° C. for 3 hr and fluorescence was measured using a PerkinElmer Envision plate reader. […]
# [2] = tested on: A-427 lung carcinoma cells [heterozygous G12D]; assay: Cancer cell line proliferation (CellTiter-Glo), A-427; assay type: cell-based; settings: Homo sapiens, A427 cells, 72 hr, read-out: CTG(IC50), ABS-72 H(nM) A427
# Method: as §1, §2
# [3] = tested on: AGS gastric carcinoma cells [heterozygous G12D]; assay: Cancer cell line proliferation (CellTiter-Glo), AGS; assay type: cell-based; settings: Homo sapiens, 72 hr, read-out: CTG(IC50), ABS-72 H(nM) AGS
# Method: as §1, §2
# [4] = tested on: SW1990 pancreatic adenocarcinoma cells [homozygous G12D]; assay: Cancer cell line proliferation (CellTiter-Glo), SW1990; assay type: cell-based; settings: Homo sapiens, 72 hr, read-out: CTG(IC50), ABS-72 H(nM) SW1990
# Method: as §1, §2
SMILES,IC50 [1] [nM],IC50 (KRAS (G12D)/SOS1) [nM],IC50 [2] [nM],IC50 [3] [nM],IC50 [4] [nM]
C#Cc1c(F)ccc2cc(O)cc(-c3nc(OC)c4c(N5CC6CCC(C5)N6)nc(OCC5(CN6CC7CC7C6)CC5)nc4c3F)c12 (centres unmarked) [Example 2],< 100,< 100,< 100,< 100,< 100
C#Cc1c(F)ccc2cc(O)cc(-c3nc(OC)c4c(N5CC6CCC(C5)N6)nc(OCC5(CN6CCC(C(F)(F)F)CC6)CC5)nc4c3F)c12 [Example 3],< 100,< 100,< 100,< 100,< 100
C#Cc1cccc2cc(O)cc(-c3ncc4c(N5CC6CCC(C5)N6)nc(OCC5(CN6CCC(F)(F)CC6)CC5)nc4c3F)c12 [Example 5],< 100,< 100,< 100,< 100,
C#Cc1cccc2cc(O)cc(-c3ncc4c(N5CC6CCC(C5)N6)nc(OCC5(CN6CC(F)C6)CC5)nc4c3F)c12 [Example 6],100 to 1000,< 100,< 100,< 100,
C#Cc1cccc2cc(O)cc(-c3ncc4c(N5CC6CCC(C5)N6)nc(OCC5(CN6CCC(F)CC6)CC5)nc4c3F)c12 [Example 7],< 100,< 100,< 100,< 100,< 100
C#Cc1cccc2cc(O)cc(-c3ncc4c(N5CC6CCC(C5)N6)nc(OCC5(CN6CC[C@H](F)C6)CC5)nc4c3F)c12 [Example 8],< 100,< 100,< 100,< 100,< 100
C#Cc1c(F)ccc2cc(O)cc(-c3ncc4c(N5CC6CCC(C5)N6)nc(OCC5(CN6CCCC(F)(F)C6)CC5)nc4c3F)c12 [Example 9],100 to 1000,< 100,100 to 1000,< 100,
C#Cc1c(F)ccc2cc(O)cc(-c3ncc4c(N5CC6CCC(C5)N6)nc(OCC5(CN6CCC[C@H](C#N)C6)CC5)nc4c3F)c12 [Example 10],< 100,< 100,< 100,< 100,
C#Cc1c(F)ccc2cc(O)cc(-c3ncc4c(N5CC6CCC(C5)N6)nc(OCC5(CN6CCC(C#N)CC6)CC5)nc4c3F)c12 [Example 11],< 100,< 100,< 100,< 100,
C#Cc1c(F)ccc2cc(O)cc(-c3ncc4c(N5CC6CCC(C5)N6)nc(OCC5(CN6CCC(OC)CC6)CC5)nc4c3F)c12 [Example 12],100 to 1000,< 100,100 to 1000,< 100,
C#Cc1c(F)ccc2cc(O)cc(-c3ncc4c(N5CC6CCC(C5)N6)nc(OCC5(CN6CC[C@H](F)C6)CC5)nc4c3F)c12 [Example 15],< 100,< 100,< 100,< 100,
C#Cc1c(F)ccc2cc(O)cc(-c3ncc4c(N5CC6CCC(C5)N6)nc(OCC5(CN6CCC[C@@H](F)C6)CC5)nc4c3F)c12 [Example 16],< 100,< 100,< 100,< 100,
C#Cc1cccc2cc(O)cc(-c3ncc4c(N5CC6CCC(C5)N6)nc(OCC5(CN6CCC(OC)CC6)CC5)nc4c3F)c12 [Example 17],,< 100,100 to 1000,< 100,
C#Cc1c(F)ccc2cc(O)cc(-c3ncc4c(N5CC6CCC(C5)N6)nc(OCC5(CN6CCC(C(C)C)CC6)CC5)nc4c3F)c12 [Example 18],,< 100,100 to 1000,< 100,
C#Cc1c(F)ccc2cc(O)cc(-c3ncc4c(N5CC6CCC(C5)N6)nc(OCC5(CN6CCC(OC(F)(F)F)CC6)CC5)nc4c3F)c12 [Example 20],< 100,< 100,100 to 1000,< 100,< 100
C#Cc1c(F)ccc2cc(O)cc(-c3ncc4c(N5CC6CCC(C5)N6)nc(OCC5(CN6CC7CC7(C#N)C6)CC5)nc4c3F)c12 (centres unmarked) [Example 21],100 to 1000,< 100,100 to 1000,< 100,< 100
C#Cc1c(F)ccc2cc(O)cc(-c3ncc4c(N5CC6CCC(C5)N6)nc(OCC5(CN6CCC([S+](C)[O-])CC6)CC5)nc4c3F)c12 (centres unmarked) [Example 22],> 1000,100 to 1000,> 1000,> 1000,

SMILES,IC50 [1] [nM],IC50 (KRAS (G12D)/SOS1) [nM],IC50 [2] [nM],IC50 [3] [nM],IC50 [4] [nM]
C#Cc1c(F)ccc2cc(O)cc(-c3nc(N(C)C)c4c(N5CC6CCC(C5)N6)nc(OCC5(CN6CCC(F)CC6)CC5)nc4c3F)c12 [Example 23],> 1000,100 to 1000,> 1000,> 1000,> 1000
C#Cc1c(F)ccc2cc(O)cc(-c3ncc4c(N5CC6CCC(C5)N6)nc(OCC5(CN6CCC7(CC6)OCCO7)CC5)nc4c3F)c12 [Example 24],> 1000,< 100,100 to 1000,< 100,< 100
C#Cc1c(F)ccc2cc(O)cc(-c3ncc4c(N5CC6CCC(C5)N6)nc(OCC5(CN6CCC(S(=O)(=O)N(C)C)CC6)CC5)nc4c3F)c12 [Example 25],100 to 1000,< 100,> 1000,< 100,100 to 1000
C#Cc1c(F)ccc2cc(O)cc(-c3ncc4c(N5CC6CCC(C5)N6)nc(OCC5(CN6CC=C(C(F)(F)F)CC6)CC5)nc4c3F)c12 [Example 26],< 100,< 100,100 to 1000,< 100,< 100
C#Cc1c(F)ccc2cc(O)cc(-c3ncc4c(N5CC6CCC(C5)N6)nc(OCC(=C)CN5CCC(F)CC5)nc4c3F)c12 [Example 27],100 to 1000,< 100,100 to 1000,< 100,< 100
C#Cc1c(F)ccc2cc(O)cc(-c3nc(Cl)c4c(N5CC6CCC(C5)N6)nc(OCC5(CN6CCC(F)CC6)CC5)nc4c3F)c12 [Example 28],< 100,< 100,100 to 1000,< 100,< 100
C#Cc1c(F)ccc2cc(O)cc(-c3nc(OC(C)C)c4c(N5CC6CCC(C5)N6)nc(OCC5(CN6CCC(C(F)(F)F)CC6)CC5)nc4c3F)c12 [Example 29],< 100,< 100,100 to 1000,< 100,< 100
[2H]C([2H])([2H])Oc1nc(-c2cc(O)cc3ccc(F)c(C#C)c23)c(F)c2nc(OCC3(CN4CCC(C(F)(F)F)CC4)CC3)nc(N3CC4CCC(C3)N4)c12 [Example 30],< 100,< 100,< 100,< 100,< 100
C#Cc1c(F)ccc2cc(O)cc(-c3nc(OC4CC4)c4c(N5CC6CCC(C5)N6)nc(OCC5(CN6CCC(C(F)(F)F)CC6)CC5)nc4c3F)c12 [Example 31],< 100,< 100,100 to 1000,< 100,< 100
C#Cc1c(F)ccc2cc(O)cc(-c3nc(OC(F)F)c4c(N5CC6CCC(C5)N6)nc(OCC5(CN6CCC(C(F)(F)F)CC6)CC5)nc4c3F)c12 [Example 32],100 to 1000,< 100,100 to 1000,< 100,< 100
C#Cc1c(F)ccc2cc(O)cc(-c3nc(OC(F)F)c4c(N5CC6CCC(C5)N6)nc(OCC5(CN6CCC(F)CC6)CC5)nc4c3F)c12 [Example 35],< 100,< 100,,< 100,< 100
C#Cc1c(F)ccc2cc(O)cc(-c3nc(N)c4c(N5CC6CCC(C5)N6)nc(OCC5(CN6CCC(F)CC6)CC5)nc4c3F)c12 [Example 46],100 to 1000,< 100,,< 100,< 100
C#Cc1c(F)ccc2cc(O)cc(-c3nc(OC(F)(F)F)c4c(N5CC6CCC(C5)N6)nc(OCC5(CN6CCC(F)CC6)CC5)nc4c3F)c12 [Example 47],< 100,< 100,,< 100,< 100
C#Cc1c(F)ccc2cc(O)cc(-c3nc(OC)c4c(N5CC6CCC(C5)N6)nc(OCC(=C)CN5CC6CC6C5)nc4c3F)c12 (centres unmarked) [Example 48],< 100,< 100,,< 100,< 100
C#Cc1c(F)ccc2cc(O)cc(-c3nc(OC)c4c(N5CC6CCC(C5)N6)nc(OCC5(CN6CC7(CC(F)C7)C6)CC5)nc4c3F)c12 [Example 50],< 100,< 100,,< 100,< 100
"C#Cc1c(F)ccc2cc(O)cc(-c3ncc4c(N5CC6CCC(C5)N6)nc(OCC56CCCN5C[C@H](F)C6)nc4c3F)c12 (some centres unmarked) [Ref. 1, reference compound]",100 to 1000,,< 100,< 100,< 100
